Measurements as given in the supplement of paper PMC10307832.

Legend:
Experiment in all cases: relative viability (nuclei count vs DMSO), 5 days (fraction); higher = more cells survive
[1] = tested on: HCC-44
How it was run: (§1)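 Medians of duplicate plates are given as relative viability. That measure is the nuclei count in treated wells divided by the count in vehicle wells. Counts were taken on 4× images of lung cancer cell lines in 1536-well plates, 5 days after pin-tool dosing the day after seeding with one drug alone or a fixed anchor-drug dose plus five library-drug doses (not always all listed) in √10 steps.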

[2] = tested on: NCI-H1792
How it was run: as §1

[3] = tested on: HARA
How it was run: as §1

[4] = tested on: BEN
How it was run: as §1

[5] = tested on: NCI-H441
How it was run: as §1

[6] = tested on: NCI-H650
How it was run: as §1

[7] = tested on: NCI-H358
How it was run: as §1

[8] = tested on: NCI-H838
How it was run: as §1

[9] = tested on: COR-L23
How it was run: as §1

[10] = tested on: EKVX
How it was run: as §1

[11] = tested on: NCI-H596
How it was run: as §1

[12] = tested on: NCI-H23
How it was run: as §1

[13] = tested on: HCC-15
How it was run: as §1

[14] = tested on: LK-2
How it was run: as §1

[15] = tested on: SK-MES-1
How it was run: as §1

[16] = tested on: HCC-827
How it was run: as §1

[17] = tested on: COR-L 105
How it was run: as §1

[18] = tested on: A-427
How it was run: as §1

[19] = tested on: 201T
How it was run: as §1

[20] = tested on: NCI-H1975
How it was run: as §1

[21] = tested on: NCI-H1666
How it was run: as §1

[22] = tested on: SW 900
How it was run: as §1

[23] = tested on: NCI-H1437
How it was run: as §1

## O=C(O)c1ccc(-c2c[nH]c3ncc(-c4ccccc4)cc23)cc1C1CCCC1 + Nc1ncn([C@H]2C[C@H](O)[C@@H](CO)O2)c(=O)n1 [Decitabine] (partner 2 µM)
[1]; first compound 0.04 µM
  relative viability: 0.973
[1]; first compound 0.1265 µM
  relative viability: 0.95
[1]; first compound 0.4 µM
  relative viability: 0.962
[1]; first compound 1.265 µM
  relative viability: 0.864
[2]; first compound 0.04 µM
  relative viability: 0.515
[2]; first compound 0.1265 µM
  relative viability: 0.51
[2]; first compound 0.4 µM
  relative viability: 0.543
[2]; first compound 1.265 µM
  relative viability: 0.457
[3]; first compound 0.04 µM
  relative viability: 0.372
[3]; first compound 0.1265 µM
  relative viability: 0.643
[3]; first compound 0.4 µM
  relative viability: 0.477
[3]; first compound 1.265 µM
  relative viability: 0.354
[4]; first compound 0.04 µM
  relative viability: 0.621
[4]; first compound 0.1265 µM
  relative viability: 0.901
[4]; first compound 0.4 µM
  relative viability: 0.692
[4]; first compound 1.265 µM
  relative viability: 0.585
[5]; first compound 0.04 µM
  relative viability: 0.221
[5]; first compound 0.1265 µM
  relative viability: 0.254
[5]; first compound 0.4 µM
  relative viability: 0.251
[5]; first compound 1.265 µM
  relative viability: 0.251
[6]; first compound 0.04 µM
  relative viability: 0.284
[6]; first compound 0.1265 µM
  relative viability: 0.317
[6]; first compound 0.4 µM
  relative viability: 0.329
[6]; first compound 1.265 µM
  relative viability: 0.274
[7]; first compound 0.04 µM
  relative viability: 0.193
[7]; first compound 0.1265 µM
  relative viability: 0.218
[7]; first compound 0.4 µM
  relative viability: 0.172
[7]; first compound 1.265 µM
  relative viability: 0.115
[8]; first compound 0.04 µM
  relative viability: 0.45
[8]; first compound 0.1265 µM
  relative viability: 0.475
[8]; first compound 0.4 µM
  relative viability: 0.416
[8]; first compound 1.265 µM
  relative viability: 0.357
[9]; first compound 0.04 µM
  relative viability: 0.446
[9]; first compound 0.1265 µM
  relative viability: 0.414
[9]; first compound 0.4 µM
  relative viability: 0.365
[9]; first compound 1.265 µM
  relative viability: 0.327
[10]; first compound 0.04 µM
  relative viability: 0.341
[10]; first compound 0.1265 µM
  relative viability: 0.362
[10]; first compound 0.4 µM
  relative viability: 0.336
[10]; first compound 1.265 µM
  relative viability: 0.368
[11]; first compound 0.04 µM
  relative viability: 1.05
[11]; first compound 0.1265 µM
  relative viability: 0.933
[11]; first compound 0.4 µM
  relative viability: 1.01
[11]; first compound 1.265 µM
  relative viability: 1.74
[12]; first compound 0.04 µM
  relative viability: 0.329
[12]; first compound 0.1265 µM
  relative viability: 0.256
[12]; first compound 0.4 µM
  relative viability: 0.29
[12]; first compound 1.265 µM
  relative viability: 0.251
[13]; first compound 0.04 µM
  relative viability: 0.641
[13]; first compound 0.1265 µM
  relative viability: 0.673
[13]; first compound 0.4 µM
  relative viability: 0.608
[13]; first compound 1.265 µM
  relative viability: 0.381
[14]; first compound 0.04 µM
  relative viability: 0.253
[14]; first compound 0.1265 µM
  relative viability: 0.327
[14]; first compound 0.4 µM
  relative viability: 0.28
[14]; first compound 1.265 µM
  relative viability: 0.333
[15]; first compound 0.04 µM
  relative viability: 0.335
[15]; first compound 0.1265 µM
  relative viability: 0.398
[15]; first compound 0.4 µM
  relative viability: 0.363
[15]; first compound 1.265 µM
  relative viability: 0.328
[16]; first compound 0.04 µM
  relative viability: 0.263
[16]; first compound 0.1265 µM
  relative viability: 0.316
[16]; first compound 0.4 µM
  relative viability: 0.273
[16]; first compound 1.265 µM
  relative viability: 0.337
[17]; first compound 0.04 µM
  relative viability: 0.68
[17]; first compound 0.1265 µM
  relative viability: 0.62
[17]; first compound 0.4 µM
  relative viability: 0.703
[17]; first compound 1.265 µM
  relative viability: 0.72
[18]; first compound 0.04 µM
  relative viability: 0.59
[18]; first compound 0.1265 µM
  relative viability: 0.594
[18]; first compound 0.4 µM
  relative viability: 0.5
[18]; first compound 1.265 µM
  relative viability: 0.475
[19]; first compound 0.04 µM
  relative viability: 0.862
[19]; first compound 0.1265 µM
  relative viability: 0.808
[19]; first compound 0.4 µM
  relative viability: 0.805
[19]; first compound 1.265 µM
  relative viability: 0.811
[20]; first compound 0.04 µM
  relative viability: 0.393
[20]; first compound 0.1265 µM
  relative viability: 0.447
[20]; first compound 0.4 µM
  relative viability: 0.554
[20]; first compound 1.265 µM
  relative viability: 0.376
[21]; first compound 0.04 µM
  relative viability: 0.689
[21]; first compound 0.1265 µM
  relative viability: 0.805
[21]; first compound 0.4 µM
  relative viability: 0.693
[21]; first compound 1.265 µM
  relative viability: 0.613
[22]; first compound 0.04 µM
  relative viability: 0.437
[22]; first compound 0.1265 µM
  relative viability: 0.456
[22]; first compound 0.4 µM
  relative viability: 0.38
[22]; first compound 1.265 µM
  relative viability: 0.344
[23]; first compound 0.04 µM
  relative viability: 0.533
[23]; first compound 0.1265 µM
  relative viability: 0.572
[23]; first compound 0.4 µM
  relative viability: 0.517
[23]; first compound 1.265 µM
  relative viability: 0.336

## O=C(O)c1ccc(-c2c[nH]c3ncc(-c4ccccc4)cc23)cc1C1CCCC1 + N=C(N)NC(=N)NCCc1ccccc1 [Phenformin] (partner 250 µM)
[1]; first compound 0.04 µM
  relative viability: 0.198
[1]; first compound 0.1265 µM
  relative viability: 0.295
[1]; first compound 0.4 µM
  relative viability: 0.224
[1]; first compound 1.265 µM
  relative viability: 0.141
[2]; first compound 0.1265 µM
  relative viability: 0.475
[2]; first compound 0.4 µM
  relative viability: 0.353
[2]; first compound 1.265 µM
  relative viability: 0.413
[3]; first compound 0.04 µM
  relative viability: 0.469
[3]; first compound 0.1265 µM
  relative viability: 0.479
[3]; first compound 0.4 µM
  relative viability: 0.459
[3]; first compound 1.265 µM
  relative viability: 0.372
[4]; first compound 0.04 µM
  relative viability: 0.274
[4]; first compound 0.1265 µM
  relative viability: 0.283
[4]; first compound 0.4 µM
  relative viability: 0.247
[4]; first compound 1.265 µM
  relative viability: 0.246
[5]; first compound 0.04 µM
  relative viability: 0.765
[5]; first compound 0.1265 µM
  relative viability: 1.15
[5]; first compound 0.4 µM
  relative viability: 0.807
[5]; first compound 1.265 µM
  relative viability: 0.28
[6]; first compound 0.04 µM
  relative viability: 0.42
[6]; first compound 0.1265 µM
  relative viability: 0.494
[6]; first compound 0.4 µM
  relative viability: 0.448
[6]; first compound 1.265 µM
  relative viability: 0.399
[7]; first compound 0.04 µM
  relative viability: 0.347
[7]; first compound 0.1265 µM
  relative viability: 0.379
[7]; first compound 0.4 µM
  relative viability: 0.292
[7]; first compound 1.265 µM
  relative viability: 0.124
[8]; first compound 0.04 µM
  relative viability: 0.542
[8]; first compound 0.1265 µM
  relative viability: 0.655
[8]; first compound 0.4 µM
  relative viability: 0.596
[8]; first compound 1.265 µM
  relative viability: 0.511
[9]; first compound 0.04 µM
  relative viability: 0.424
[9]; first compound 0.1265 µM
  relative viability: 0.507
[9]; first compound 0.4 µM
  relative viability: 0.437
[9]; first compound 1.265 µM
  relative viability: 0.268
[10]; first compound 0.04 µM
  relative viability: 0.249
[10]; first compound 0.1265 µM
  relative viability: 0.225
[10]; first compound 0.4 µM
  relative viability: 0.245
[10]; first compound 1.265 µM
  relative viability: 0.219
[11]; first compound 0.04 µM
  relative viability: 0.772
[11]; first compound 0.1265 µM
  relative viability: 0.808
[11]; first compound 0.4 µM
  relative viability: 0.79
[11]; first compound 1.265 µM
  relative viability: 0.737
[12]; first compound 0.04 µM
  relative viability: 0.776
[12]; first compound 0.1265 µM
  relative viability: 0.902
[12]; first compound 0.4 µM
  relative viability: 0.814
[12]; first compound 1.265 µM
  relative viability: 0.613
[13]; first compound 0.04 µM
  relative viability: 0.514
[13]; first compound 0.1265 µM
  relative viability: 0.617
[13]; first compound 0.4 µM
  relative viability: 0.433
[13]; first compound 1.265 µM
  relative viability: 0.234
[14]; first compound 0.04 µM
  relative viability: 0.733
[14]; first compound 0.1265 µM
  relative viability: 0.699
[14]; first compound 0.4 µM
  relative viability: 0.377
[14]; first compound 1.265 µM
  relative viability: 0.367
[15]; first compound 0.04 µM
  relative viability: 0.683
[15]; first compound 0.1265 µM
  relative viability: 0.687
[15]; first compound 0.4 µM
  relative viability: 0.637
[15]; first compound 1.265 µM
  relative viability: 0.447
[16]; first compound 0.04 µM
  relative viability: 0.406
[16]; first compound 0.1265 µM
  relative viability: 0.397
[16]; first compound 0.4 µM
  relative viability: 0.43
[16]; first compound 1.265 µM
  relative viability: 0.386
[17]; first compound 0.04 µM
  relative viability: 0.485
[17]; first compound 0.1265 µM
  relative viability: 0.492
[17]; first compound 0.4 µM
  relative viability: 0.489
[17]; first compound 1.265 µM
  relative viability: 0.446
[18]; first compound 0.04 µM
  relative viability: 0.317
[18]; first compound 0.1265 µM
  relative viability: 0.446
[18]; first compound 0.4 µM
  relative viability: 0.304
[18]; first compound 1.265 µM
  relative viability: 0.264
[19]; first compound 0.04 µM
  relative viability: 0.477
[19]; first compound 0.1265 µM
  relative viability: 0.45
[19]; first compound 0.4 µM
  relative viability: 0.456
[19]; first compound 1.265 µM
  relative viability: 0.437
[20]; first compound 0.04 µM
  relative viability: 0.41
[20]; first compound 0.1265 µM
  relative viability: 0.423
[20]; first compound 0.4 µM
  relative viability: 0.388
[20]; first compound 1.265 µM
  relative viability: 0.298
[21]; first compound 0.04 µM
  relative viability: 0.579
[21]; first compound 0.1265 µM
  relative viability: 0.552
[21]; first compound 0.4 µM
  relative viability: 0.508
[21]; first compound 1.265 µM
  relative viability: 0.363
[22]; first compound 0.04 µM
  relative viability: 0.706
[22]; first compound 0.1265 µM
  relative viability: 0.615
[22]; first compound 0.4 µM
  relative viability: 0.654
[22]; first compound 1.265 µM
  relative viability: 0.381
[23]; first compound 0.04 µM
  relative viability: 0.295
[23]; first compound 0.1265 µM
  relative viability: 0.298
[23]; first compound 0.4 µM
  relative viability: 0.319
[23]; first compound 1.265 µM
  relative viability: 0.202
